Data: patent US10124035B2, “DISC-1 pathway activators in the control of neurogenesis” (Massachusetts Institute of Technology, priority 2008, dated 2018)

Key:
[1] = previously reported (Selenica et al. 2007); cited from earlier work
[2] = system: neural progenitors in embryonic mouse brains; test: In utero electroporation of shRNA into E13 embryonic mouse brains; type: in vivo
Excerpt: • Mice. Swiss Webster pregnant female mice were purchased from Taconic (Hudson, N.Y.). • Cell Culture. AHPs were kindly provided by Dr. Gage (Lie, D. C. et al. Wnt signaling to regulates adult hippocampal neurogenesis. Nature 437, 1370-5 (2005)) and cultured under conditions described previously (Palmer, T. D., Takahashi, J. & Gage, F. H. The adult rat hippocampus contains primordial neural stem cells. Mol Cell Neurosci 8, 389-404 (1997)). Primary neural progenitors were isolated from E14 mouse embryos and cultured as described previously (Sanada, K. & Tsai, L. H. G protein betagamma subunits and AGS3 control spindle orientation and asymmetric cell fate of cerebral cortical progenitors. Cell 122, 119-31 (2005)). N2a and 293T cells were cultured in DMEM medium containing 10% FBS, L-glutamine, and penicillin/streptomycin. Wnt3a expressing L cells and untransfected L cells were obtained from ATCC (Manassas, Va.). Wnt3a conditional medium was produced according to the ATCC protocol. To induce AHP differentiation, FGF2 was removed from the culture medium and 1 μM retinoic acid/1% FBS was added to the medium for 4 days. • Reagents. Recombinant Wnt3a protein was obtained from Chemicon (Rosemont, Ill.). FGF2 was obtained from PeproTech (Rocky Hill, N.J.). Recombinant GST-GSK3β was obtained from Active Motif (Carlsbad, Calif.). Recombinant GST-β-catenin and GST-axin were obtained from Millipore (Billerica, Mass.). The GSK313 inhibitor, SB-216763, AR-A104418 and His-GSK3β, were obtained from Sigma-Aldrich (Sigma-Aldrich, St. Louis, Mo.). L803-MTS was obtained from Calbiochem (San Diego, Calif.). GST-AKT1 was obtained from Cell Signaling (Beverly, Mass.). GST-CASK-1 (CASK fragment from 316-415aa), GST-CASK-2 (CASK fragment from 777-974aa), and GST-p25 proteins were kindly provided by Dr. B. A. Samuels. Mouse DISC1 peptidel (40-78aa: GYMRSTAGSG IGFLSPAVGMPHPSSAG LTGQQSQHSQS; SEQ ID NO: 1) and Mouse DISC1 peptide 2 (195-238aa, […] GERGEAEGCLPSREAE; SEQ ID NO: 2) were synthesized by Chi Scientific (Maynard, Mass.). • Antibodies. The primary antibodies used in this study were the following: rabbit anti-DISC1 C-terminal antibody, mouse and rabbit anti-GFP antibodies (Invitrogen, Carlsbad, Calif.); affinity purified rabbit anti-DISC1 antibody (Novus, Littleton, Colo.) for immunohistochemistry; mouse anti-FLAG and mouse anti-Actin antibody; mouse anti-GSK3β antibody, mouse anti-β-catenin antibody, mouse anti-pY216 GSK3β antibody, and mouse anti-nestin antibody (BD Biosciences, San Diego, Calif.); rabbit anti-[…] β-catenin antibody, rabbit anti-pS9 GSK3β antibody, and mouse anti-cyclin to D1 antibody (Cell Signaling); mouse anti-Dv12 antibody, mouse anti-HA antibody, mouse anti-GST antibody, mouse anti-ubiquitin antibody, and rabbit anti-β-catenin antibody (Santa Cruz, Santa Cruz, Calif.); mouse Tuj-1 antibody (BABCO, Harrisburg, Pa.); mouse anti-BrdU antibody (DakoCytomation, Glostrup, Denmark); guinea pig anti-doublecortin antibody (Chemicon, Rosemont, Ill.); chicken anti-GFP antibody (Ayes Labs, Tigard, Oreg.); rabbit anti-pS10 Histone H3 antibody (Upstate, Lake Placid, N.Y.). • Constructs. The sequences for shRNAs targeting DISC1 are as follows: control shRNA: 5′-CGGCTGAAACAAGAGTTGG-3′ (SEQ ID NO:3); DISC1 shRNA-1: 5′-GGCAAACACTGTGA AGT GC-3′ (SEQ ID NO:4); DISC1 shRNA-2: 5′-[…]-3′ (SEQ ID NO:5)(Kamiya A. et al. A schizophrenia-associated mutation of DISC1 perturbs cerebral cortex development. Nat. Cell Biol 7, 1167-78 (2005)). DISC1 shRNA-1 recognizes both rat and mouse DISC1. […]

[3] = electroporated at E13, analyzed 3 days later

| Compound | crossing of the blood-brain barrier [1] | BrdU labeling ([2]; BrdU 2 hours prior to collection) [%] | cell cycle exit index ([2]; electroporated E13, BrdU at E15, collected E16) [%] | GFP+Dcx+ cells ([2]; electroporated E13, sacrificed E16, SVZ) [%] | GFP positive cells in the VZ/SVZ [2, 3] [%] | GFP positive cells in the cortical plate [2, 3] [%] | mitotic index ([2]; pH3, electroporated E13, sacrificed E15) [%] |
| --- | --- | --- | --- | --- | --- | --- | --- |
| Cn1cc(C2=C(c3ccc(Cl)cc3Cl)C(=O)NC2=O)c2ccccc21 [SB-216763] | cross the blood-brain barrier | – | – | – | – | – | – |
| DISC1 shRNA-1: shRNA targeting rat and mouse DISC1, SEQ ID NO:4, in pLentiLox 3.7 vector (GGCAAACACTGTGAAGTGC) | – | 18.2±2.2 | 53.2±6.1 | 36.7±4.2 | 13 | 59.6 | 3.8±0.8 |
